Laboratory results reported in patent US8552035B2, “Phenanthrenone compounds, compositions and methods” (Pfizer Inc., priority 2008, dated 2013).

Tests used:
Assay type in all cases: in vivo
LPS-induced TNFα = test: 28-day mouse side-effect model, LPS-induced serum TNFα suppression; conditions: oral gavage 28 days, LPS challenge; for ED50: 672 h, read-out: TNFα Suppression (ED50 dose)
Method: (§1) 10-12 week old female Swiss Webster mice (Taconic, Germantown, N.Y., U.S.A.) weighing 27-29 grams are used in accordance with the guidelines of the Institutional Animal Care and Use Committee and in accordance with NIH guidelines on laboratory animal welfare. Mice are acclimated to the Pfizer animal facility for 3-7 days prior to being placed on study. Prednisolone and DAGR compounds are administered by oral gavage for a total of 28 days. Each treatment group generally contains 8-10 mice. To establish a dosing regimen for the studies, a pilot pharmacodynamic time course experiment is conducted to quantify TNFa repression after a single ED80 dose (determined from the acute LPS endotoxemia mouse model). […] DAGR compounds vary in their required frequency of doses.
(§2) Body weights are measured on the first and last day of each experiment. Blood samples are obtained after ˜3 weeks of dosing for steady-state pharmacokinetic analysis. To assess compound effects on LPS-induced TNF-a, all mice receive an intraperitoneal injection of LPS (Salmonella Typhosa, Sigma, St. Louis, L-7895) 2.5 hr after the last dose on day 28. Mice are sacrificed 90 min. after LPS administration. Serum samples are assayed for osteocalcin and TNFa using the Linco multiplex assay (St. Charles, Mo.) and Luminex 100 (Austin, Tex.). Samples are diluted 1:20 and the assay is run according to manufacturer's instructions. An osteocalcin standard is purchased separately from Biomedical Technologies Incorporated (Stoughton, Mass.). Serum insulin is measured to assess compound effects on insulin resistance. Insulin was measured using the UltraSensitive Mouse EIA kit from Alpco Diagnostics (Salem, N.H.) following the manufacturer's protocol.
(§3) ED50 and ED80 values are obtained for the various parameters using four-parameter logistic fits of data. For each experiment/dose group, outliers are detected by calculating the number of standard deviations each mouse's value was from the mean of their group and then dividing by the standard deviation of the group. The means and standard deviations used in this calculation omitted the value being examined so that, if it were an outlier, it would have no influence. If the value being examined is more than 2.5 standard deviations from the mean, it was not used in the rest of the calculations.
(§4) Percent inhibition values are then calculated for each animal using the means of the vehicle and 10 mpk prednisone control groups. The individual mouse percent inhibition values are then fit to a four-parameter logistic model using the area under curve mean for each group. Since all four parameters are estimated and the lower plateau is not fixed at 0% and the upper plateau was not fixed at 100%, the ED50 and ED80 values are calculated by using an inverse calibration formula for a response equal to 50% or 80%. The designation “nd” means not determined.

osteocalcin = test: 28-day mouse side-effect model, serum osteocalcin suppression; conditions: oral gavage 28 days; for ED50 at 28 days: female, Swiss Webster, read-out: Osteocalcin Suppression (ED50 dose)
Method: as §1, §2, §3, §4

bone formation rate = test: 28-day mouse side-effect model, cortical bone histomorphometry (bone formation rate); conditions: oral gavage 28 days, tibia cortical bone formation rate; for ED50 at 28 days: female, Swiss Webster, read-out: BFR (ED50 dose)
Method: as §1
During the in-life portion of each study, mice received two IP injections of the fluorochrome calcein (C-0875; Sigma-Aldrich; 20 mg/kg; 200 μL/mouse), dissolved in 2% sodium bicarbonate, on days 1 and 26 for bone histomorphometry measurements. Fluorochrome labels incorporate into the bone mineral and allow measurement of bone formation rate. During the tissue harvest, the left tibia is excised and cleaned for cortical histomorphometry measurements. After all skin and muscle are removed, tibiae are placed in 70% ethanol (4° C.) in the dark for a minimum of 24 hours.
Ground transverse sections are used for histomorphometric analysis of cortical bone^1. Bones are sectioned using a low speed saw (Isomet, Buehler, Lake Bluff, Ill.) equipped with a diamond wafer blade. The end of each tibia is removed proximal to tibia-fibula synostosis and a […] cross-section is cut. Using a roughened glass plate and a cork, sections are ground to […] until transparent and all labels distinguishable under a fluorescent microscope. Sections are dehydrated using the following solutions for a minimum of 2 minutes each: 1) 70% ethanol, 2) 95% ethanol, 3) 100% ethanol, 4) 50/50 ethanol/xylene, and 5) xylene (twice) (Sigma, St. Louis, 534056). Sections are mounted using Eukitt Quick Mounting Medium (Sigma, St. Louis, 03989) and cover-slipped. Using the Osteomeasure Bone Analysis Program (Decatur, Ga.), bone formation rate is calculated by tracing the 1st and 2nd fluorescent labels in addition to tracing the inner and outer perimeter of the bone. Bone formation rate is calculated by the following equation: (Interlabel Width/Label Interval)*(Labeled Perimeter/Bone Perimeter). At least 5 samples are measured from each treatment group in each study.
as §3, §4

serum insulin = test: 28-day mouse side-effect model, serum insulin; conditions: oral gavage 28 days; for ED50 at 28 days: female, Swiss Webster, read-out: Insulin (ED50 dose)
Method: as §1, §2, §3, §4

[1] = test system: Mouse collagen-induced arthritis; test: Therapeutic mouse collagen-induced arthritis (mCIA); conditions: for ED50: 816 h, dosing day 34 to 49, read-out: Therapeutic mCIA (ED50 dose); for Therapeutic mCIA (ED80 dose): dosing day 34 to 49
From the text: Mouse Collagen-induced arthritis is a commonly used chronic, preclinical model of rheumatoid arthritis in which joint swelling and bone destruction occur following immunization with type II collagen. Reduction of disease incidence and severity has been shown previously to be predictive of disease-modification and signs and symptoms mitigation, respectively, in a clinical setting.
In the therapeutic mCIA model, induction of disease incidence and severity was synchronized via LPS stimulation. Male DBA/J mice were immunized with 100 ug of bovine type II collagen (bCII) on day 0. All mice received an intraperitoneal injection of 20 μg of LPS on day 28 and disease was allowed to develop through day 34. At day 34, all mice had disease (incidence=100%) with an average severity score of seven. Dosing of compounds was initiated in the therapeutic mode on day 34 and continued through day 49. Different treatments were compared by measuring the decrease in incidence (i.e., resolution of disease) and the decrease in severity of paw swelling over time.
as §3, §4

| SMILES | ED50 (LPS-induced TNFα) [mg/kg] | TNFα Suppression (ED80 dose) (LPS-induced TNFα) | ED50 at 28 days (osteocalcin) [mg/kg] | Osteocalcin Suppression (ED80 dose) (osteocalcin) | ED50 at 28 days (bone formation rate) [mg/kg] | BFR (ED80 dose) (bone formation rate) | ED50 at 28 days (serum insulin) [mg/kg] | Insulin (ED80 dose) (serum insulin) | ED50 [1] [mg/kg] | Therapeutic mCIA (ED80 dose) [1] |
| --- | --- | --- | --- | --- | --- | --- | --- | --- | --- | --- |
| C[C@@]1(O)C[C@@]2(Cc3ccccc3)c3ccc(C(=O)NCc4cccnc4)cc3CC[C@@H]2C[C@@]1(O)c1ccccc1 [Comparator D, (4bR,6R,7R,8aR)-4b-benzyl-6,7-dihydroxy-6-methyl-7-phenyl-N-(pyridin-3-ylmethyl)-4b,5,6,7,8,8a,9,10-octahydrophenanthrene-2-carboxamide] | 11.4 | 14.48 | > 60 | >60 | 35.9 | >60 | > 60 | >60 | – | – |
| Cc1ncccc1NC(=O)c1ccc2c(c1)CC[C@@H]1C[C@@](O)(C(F)(F)F)[C@](C)(O)C[C@@]21Cc1ccccc1 [Comparator E, (4bR,6R,7S,8aR)-4b-benzyl-6,7-dihydroxy-6-methyl-N-(2-methylpyridin-3-yl)-7-(trifluoromethyl)-4b,5,6,7,8,8a,9,10-octahydrophenanthrene-2-carboxamide] | > 1 | >1 | 0.78 | >1 | 0.28 | 0.33 | > 1 | >1 | 0.13 | 1.15 |
| Cc1ncccc1NC(=O)c1ccc2c(c1)CC[C@@H]1C[C@@](O)(c3ccccn3)[C@](C)(O)C[C@@]21Cc1ccccc1 [Comparator C, (4bR,6R,7R,8aR)-4b-benzyl-6,7-dihydroxy-6-methyl-N-(2-methylpyridin-3-yl)-7-(pyridin-2-yl)-4b,5,6,7,8,8a,9,10-octahydrophenanthrene-2-carboxamide] | 3.08 | 9.87 | 3.68 | >20 | 3.72 | 7.88 | > 20 | >20 | 0.8 | 2.9 |
